The text below walks through data of US20110034472A1, “Novel Compounds for Treatment of Cancer and Disorders Associated With Angiogenesis Function” (UNIVERSITY OF SOUTHERN CALIFORNIA, priority 2004, published 2011).

Molecules are shown by their SMILES.

The subject of assay [1] is SKOV3 ovarian cancer cells. The assay is described as follows: Sensitivity of various cancer cells to SC144, SKOV3. The format is cell-based. Conditions: Homo sapiens, SK-OV-3. The text has this: The studies were expanded to other cell lines. […] Subnanomolar to low nanomolar potency was also observed in HCT-116 and HT29 colon cancer cell lines (Table 2).
The next assay has as its system HT29 colon cancer cells. The assay is described as follows: MTT cytotoxicity assay, HT 29. Conditions: Homo sapiens, 72 h. The format is cell-based, human. The source says:
(§1) Human breast cancer cells MDA-MB-435 and colon cancer HT29, p53 mutant were purchased from the American Type Cell Culture (Manassas, Va.). The HCT116 P53^+/+ and HCT116 P53^−/− cells were kindly provided by Dr. Bert Vogelstein (Johns Hopkins Medical Institutions, Baltimore, Md.). Human prostate cancer cells, LNCaP, were kindly provided by Richard Cote (University of Southern California Keck School of Medicine). Cells were maintained as monolayer cultures in RPMI 1640 media supplemented with 10% fetal bovine serum (Gemini-Bioproducts, Woodland, Calif.) and 2 mmol/L L-glutamine at 37° C. in a humidified atmosphere of 5% CO2. To remove the adherent cells from the flask for passaging and counting, cells were washed with PBS without calcium or magnesium, incubated with a small volume of 0.25% trypsin-EDTA solution (Sigma-Aldrich, St. Louis, Mo.) for 5-10 min, and washed with culture medium and centrifuged. All experiments were performed using cells at exponential growth stage. Cells were routinely checked for mycoplasma contamination using a PCR-based assay (Stratagene, Cambridge, UK).
(§2) Cytotoxicity was assessed by a 3-(4,5-dimethylthiazol-2-yl)-2,5-diphenyltetrazolium bromide (MTT) assay as previously described.^9 Briefly, cells were seeded in 96-well microtiter plates and allowed to attach. Cells were subsequently treated with continuous exposure to the corresponding drug for 72 h. An MTT solution (at a final concentration of 0.5 mg/mL) was added to each well, and cells were incubated for 4 h at 37° C. After removal of the medium, DMSO was added and the absorbance was read at 570 nm. All assays were done in triplicate. The IC50 was then determined for each drug from a plot of log (drug concentration) versus percentage of cells killed.

In assay [2] the test system is panel of seven human cancer cell lines. Nature of the assay: MTT-assay, panel of seven human cancer cell lines. Conditions: read-out: CC50 dose range. The format is cell-based. The procedure:
The sensitivity of a panel of seven human cancer cell lines to SC144 was assessed by MTT-assay. […] The sensitivity towards SC144 was time- and dose-dependent.
Background: Tetrazolium assays rely on reduction of a dye to a coloured formazan, in cell work by metabolically active cells.

The test system of assay [3] is HCT 116 p53^−/− colon cancer cells. The assay is described as follows: MTT cytotoxicity assay, HCT 116 p53-/-. The format is cell-based, human. Conditions: Homo sapiens, 72 h.
Description: as §1, §2

Take `O=C(NNc1nc2cc(F)ccc2n2cccc12)c1cnccn1` [SC144, Pyrazine-2-carboxylic acid N′-(7-fluoro-pyrrolo[1,2-a]quinoxalin-4-yl)-hydrazide]: the values for the CC50 in assay [1] and in assay [2] were 120 nM and 700 to 10000 nM, respectively. Moreover, the values for the IC50 (in the assay on HT29 colon cancer cells; in assay [3]) were 900 ± 60 nM and 900 ± 40 nM, respectively.

A word on the CC50: it is the concentration giving 50% cytotoxicity. In general, IC50 refers to the midpoint of a concentration-inhibition curve. A low value points to inhibition by little substance.
